Measurements as given in ChEMBL document CHEMBL3885861, “Open TG-GATES”.

Species on record: Rattus norvegicus
Assay: Open TG-GATES - Regimen: Single
Assay type: toxicity, organism-based, Sprague-Dawley
Parameters: regimen Single, gender Male, age 6 weeks
Details: in vivo, po, 300 mg/kg, route gavage, dose level Low; for APTT / Bas / Eos / Fbg / Hb / Ht / Lym / MCH / MCHC / MCV / Mono / Neu / PT / Plat / RBC / Ret / WBC: tissue Blood; for KIDNEY_L / KIDNEY_R / KIDNEY_TOTAL: tissue Kidney; for LIVER: tissue Liver; for A/G / ALP / ALT / AST / BUN / CRE / Ca / Cl / DBIL / GLC / IP / K / LDH / Na / PL / RALB / TBIL / TC / TG / TP / gamma-GTP: tissue Plasma

CC(=O)[C@@]1(O)CC[C@H]2[C@@H]3C=C(Cl)C4=CC(=O)CC[C@]4(C)[C@H]3CC[C@@]21C [CHLORMADINONE]
TERMINAL_BW (3 h): 219.9 g | APTT (3 h): 22.1 s | Bas (3 h): 0% | Eos (3 h): 1% | Fbg (3 h): 310.8 mg/dL | Hb (3 h): 13 g/dL | Ht (3 h): 40.3% | Lym (3 h): 75% | MCH (3 h): 20.5 pg | MCHC (3 h): 32.4% | MCV (3 h): 63.3 fL | Mono (3 h): 1.8% | Neu (3 h): 22.4% | PT (3 h): 15.2 s | Plat (3 h): 115.5 x10_4/uL | RBC (3 h): 637.8 x10_4/ul | Ret (3 h): 7.3% | WBC (3 h): 52.5 x10_2/uL | KIDNEY_L (3 h): 0.9 g | KIDNEY_R (3 h): 1 g | KIDNEY_TOTAL (3 h): 1.9 g | LIVER (3 h): 10.4 g | A/G (3 h): 1.3 | ALP (3 h): 1442.2 IU/L | ALT (3 h): 48 IU/L | AST (3 h): 78.6 IU/L | BUN (3 h): 16 mg/dL | CRE (3 h): 0.2 mg/dL | Ca (3 h): 11 mg/dL | Cl (3 h): 105.4 meq/L | DBIL (3 h): 0 mg/dL | GLC (3 h): 181.4 mg/dL | IP (3 h): 9.3 mg/dL | K (3 h): 4.2 meq/L | LDH (3 h): 140.6 IU/L | Na (3 h): 143 meq/L | PL (3 h): 147.2 mg/dL | RALB (3 h): 3.1 g/dL | TBIL (3 h): 0.024 mg/dL | TC (3 h): 79.8 mg/dL | TG (3 h): 51.6 mg/dL | TP (3 h): 5.6 g/dL | gamma-GTP (3 h): 1.6 IU/L | TERMINAL_BW (6 h): 217.9 g | APTT (6 h): 24.4 s | Bas (6 h): 0% | Eos (6 h): 0.8% | Fbg (6 h): 317.6 mg/dL | Hb (6 h): 13.1 g/dL | Ht (6 h): 40.7% | Lym (6 h): 77.2% | MCH (6 h): 20.6 pg | MCHC (6 h): 32.3% | MCV (6 h): 63.8 fL | Mono (6 h): 1.8% | Neu (6 h): 20% | PT (6 h): 15.6 s | Plat (6 h): 106.2 x10_4/uL | RBC (6 h): 638.2 x10_4/ul | Ret (6 h): 7.9% | WBC (6 h): 68.9 x10_2/uL | KIDNEY_L (6 h): 1 g | KIDNEY_R (6 h): 1 g | KIDNEY_TOTAL (6 h): 2 g | LIVER (6 h): 10.3 g | A/G (6 h): 1.3 | ALP (6 h): 1567.8 IU/L | ALT (6 h): 39.4 IU/L | AST (6 h): 72.8 IU/L | BUN (6 h): 12.6 mg/dL | CRE (6 h): 0.1 mg/dL | Ca (6 h): 10.5 mg/dL | Cl (6 h): 105.8 meq/L | DBIL (6 h): 0 mg/dL | GLC (6 h): 181.8 mg/dL | IP (6 h): 9.2 mg/dL | K (6 h): 4.4 meq/L | LDH (6 h): 159.6 IU/L | Na (6 h): 141.4 meq/L | PL (6 h): 134.8 mg/dL | RALB (6 h): 3.1 g/dL | TBIL (6 h): 0.032 mg/dL | TC (6 h): 80.8 mg/dL | TG (6 h): 35 mg/dL | TP (6 h): 5.6 g/dL | gamma-GTP (6 h): 1.8 IU/L | TERMINAL_BW (9 h): 219.9 g | APTT (9 h): 24.1 s | Bas (9 h): 0% | Eos (9 h): 0.2% | Fbg (9 h): 325.6 mg/dL | Hb (9 h): 13.2 g/dL | Ht (9 h): 41% | Lym (9 h): 79.4% | MCH (9 h): 20.2 pg | MCHC (9 h): 32% | MCV (9 h): 63.1 fL | Mono (9 h): 1% | Neu (9 h): 18.8% | PT (9 h): 15.6 s | Plat (9 h): 113.9 x10_4/uL | RBC (9 h): 651.2 x10_4/ul | Ret (9 h): 7.9% | WBC (9 h): 52.5 x10_2/uL | KIDNEY_L (9 h): 1 g | KIDNEY_R (9 h): 1 g | KIDNEY_TOTAL (9 h): 2 g | LIVER (9 h): 10.4 g | A/G (9 h): 1.3 | ALP (9 h): 1458.4 IU/L | ALT (9 h): 39.4 IU/L | AST (9 h): 72 IU/L | BUN (9 h): 14.2 mg/dL | CRE (9 h): 0.1 mg/dL | Ca (9 h): 10.8 mg/dL | Cl (9 h): 105.4 meq/L | DBIL (9 h): 0 mg/dL | GLC (9 h): 201.8 mg/dL | IP (9 h): 8.9 mg/dL | K (9 h): 4.5 meq/L | LDH (9 h): 153.6 IU/L | Na (9 h): 140.6 meq/L | PL (9 h): 152 mg/dL | RALB (9 h): 3.2 g/dL | TBIL (9 h): 0.026 mg/dL | TC (9 h): 83 mg/dL | TG (9 h): 79 mg/dL | TP (9 h): 5.6 g/dL | gamma-GTP (9 h): 1.6 IU/L | TERMINAL_BW (24 h): 225.1 g | APTT (24 h): 25.2 s | Bas (24 h): 0% | Eos (24 h): 1.2% | Fbg (24 h): 336.2 mg/dL | Hb (24 h): 13.8 g/dL | Ht (24 h): 41.9% | Lym (24 h): 80.4% | MCH (24 h): 21.1 pg | MCHC (24 h): 32.9% | MCV (24 h): 64 fL | Mono (24 h): 2.4% | Neu (24 h): 15.2% | PT (24 h): 15.5 s | Plat (24 h): 121.2 x10_4/uL | RBC (24 h): 654.4 x10_4/ul | Ret (24 h): 7.7% | WBC (24 h): 124 x10_2/uL | KIDNEY_L (24 h): 1 g | KIDNEY_R (24 h): 1 g | KIDNEY_TOTAL (24 h): 2 g | LIVER (24 h): 11 g | A/G (24 h): 1.3 | ALP (24 h): 1795.2 IU/L | ALT (24 h): 46.2 IU/L | AST (24 h): 73 IU/L | BUN (24 h): 18.8 mg/dL | CRE (24 h): 0.2 mg/dL | Ca (24 h): 10.6 mg/dL | Cl (24 h): 106.4 meq/L | DBIL (24 h): 0 mg/dL | GLC (24 h): 184 mg/dL | IP (24 h): 8.1 mg/dL | K (24 h): 4.5 meq/L | LDH (24 h): 204.8 IU/L | Na (24 h): 141 meq/L | PL (24 h): 169.2 mg/dL | RALB (24 h): 3.1 g/dL | TBIL (24 h): 0.004 mg/dL | TC (24 h): 83.8 mg/dL | TG (24 h): 175 mg/dL | TP (24 h): 5.6 g/dL | gamma-GTP (24 h): 2 IU/L
